The test system of experiment [1] is A/Puerto Rico/8/34. In kind it is cell-based, influenza A virus.
Experiment [2] deals with A/Puerto Rico/8/34.
Another experiment has as its system influenza A/PR/8/34. As to the kind of experiment: Mouse influenza A model, combination of Compound (1) with zanamivir. In kind it is in vivo. The conditions noted are these: A/PR/8/34 mice, no Compound (1). The protocol:
Infected mice were treated with vehicle or escalating dose levels of Form A of the Compound (1) HCl hemihydrate salt Form A (hereinafter in this example simply Compound (1)) in combination with zanamivir starting 24 hours prior to influenza A challenge with 5×10^3 TCID50 A/PR/8/34. The influenza A challenge and Compound (1) suspensions were prepared in a similar manner as described above in Example 8. The challenged mice were treated once IN (intranasal) with zanamivir at 0.3 mg/kg, 1 mg/kg or 3 mg/kg 24 hours prior to IN challenge with 5×10^3 TCID50 A/PR/8/34, and with Compound (1) at 0.1 mg/kg, 0.3 mg/kg, or 1 mg/kg BID for 10 days starting −2 hours prior to the challenge with 5×10^3 TCID50 A/PR/8/34.
Efficiency quotient, a composite measure of survival, bodyweight loss and lung function (% survival/(% body weight loss at Day 8)*(Penh at Day 6)) is summarized in Table 24B.

Experiment [3] concerns Influenza A/Victoria/3/75 (H3N2) virus. Type of experiment: in vivo, BALB/c mice.
The test system of experiment [4] is Influenza A/California/04/2009 (pndH1N1) virus. Type of experiment: in vivo. The following applies: pndH1N1 BALB/c mice.
The subject of experiment [5] is Influenza A/Vietnam/1203/2004 (H5N1) virus. Type of experiment: in vivo, BALB/c mice. The following applies: treatment +48 h.
The next experiment deals with influenza A. Description: Mouse influenza A model: lung viral titer. Type of experiment: in vivo, mice. The following applies: study day 6. As to the method: The effectiveness of Compound (1) to reduce lung viral titers was investigated. Mice were infected with influenza A and 24 h later vehicle, oseltamivir (10 mg/kg BID) or Compound (1) (3, 10, 30 mg/kg BID) was administered until lung harvest and viral burden determination on day 6 (Table 27).

The test system of a further experiment is influenza A virus. Type of experiment: in vivo, mice.
The subject of experiment [6] is influenza virus A/PR/8/34. Description: Mouse influenza A model, Compound (1) with or without Oseltamivir, treatment +48 h. Type of experiment: in vivo, Balb/c mice.
Experiment [7] concerns influenza virus B/Mass/3/66. As to the kind of experiment: Mouse influenza B model, Compound (1) with or without Oseltamivir. In kind it is in vivo, Balb/c mice.
Where [8] appears, read: 10 mg/kg twice a day for 10 days starting 2 hours prior to virus exposure.
The mark [9] stands for this setting: 10 mg/kg twice a day, prophylaxis.
[10] abbreviates: Oseltamivir 10 mg/kg BID prophylaxis.
Setting [11] is: 10 mg/kg twice a day for 10 days.
[12] abbreviates: treatment start +24 h, 10 mg/kg BID.
[13] abbreviates: treatment start +48 h, 10 mg/kg BID.
[14] abbreviates: treatment start +72 h, 10 mg/kg BID.
The mark [15] stands for this setting: influenza A/PR/8/34 mice, Oseltamivir 10 mg/kg PO BID 10 days alone, from +48 h.
Setting [16] is: influenza B/Mass/3/66 mice, Oseltamivir 10 mg/kg PO BID 10 days alone.

Where two headings read alike, the source gives them in different places. Marks after values point to notes of the source that are not given here.

`NC(=O)c1nc(F)c[nH]c1=O` [favipiravir]: the synergy volume with A/Puerto Rico/8/34 [1] is reported as 317. In addition, in the experiment on A/Puerto Rico/8/34 [2], the “C.I. (combination index)” value came out at 0.89.

`CCC(CC)O[C@@H]1C=C(C(=O)O)C[C@H](N)[C@H]1NC(C)=O` [oseltamivir carboxylate]: the synergy volume with A/Puerto Rico/8/34 [1] (in combination with Compound (1), Bliss independence method, […]) is given as 312.

For the molecule `CC(=O)N[C@H]1[C@H]([C@H](O)[C@H](O)CO)OC(C(=O)O)=C[C@@H]1N=C(N)N` [Zanamivir, zanamivir], the synergy volume in the experiment on A/Puerto Rico/8/34 [1] was 268. In addition, the “C.I. (combination index)” value with A/Puerto Rico/8/34 [2] came to 0.64. Further, the “Survival Rate” value in the experiment with influenza A/PR/8/34 (Zanamivir 0.3 mg/kg IN x 1, 24 h prior to infection) was found to be 37.5; in the experiment with influenza A/PR/8/34 (Zanamivir 1 mg/kg IN x 1, 24 h prior to infection) it was 50; with influenza A/PR/8/34 (Zanamivir 3 mg/kg IN x 1, 24 h prior to infection) it was 62.5. For the same molecule, the “Efficiency Quotient (% survival/(% body weight loss at Day 8)*(Penh at Day 6))” value was determined as 0.44 in the experiment with influenza A/PR/8/34 (Zanamivir 0.3 mg/kg IN x 1), 0.73 in the experiment with influenza A/PR/8/34 (Zanamivir 1 mg/kg IN x 1) and 0.73 with influenza A/PR/8/34 (Zanamivir 3 mg/kg IN x 1).

For `CCOC(=O)C1=C[C@@H](OC(CC)CC)[C@H](NC(C)=O)[C@@H](N)C1` [Oseltamivir, oseltamivir], the “MDD ± SD (mean day of death of mice that died on or before day 21)” value was 7.0 days in experiment [3] (setting [8]) and 9.5 ± 1.2 days in experiment [5] (setting [11]). Further, the figures for the Survivors/Total in [3] (setting [8]), in [4] (Oseltamivir 10 mg/kg twice a day for 10 days starting 2 hours prior to virus exposure) and in experiment [5] (setting [11]) were 9/10***, 10/10*** and 0/10, respectively. The “Mean Lung Parameters (Day 6): Virus Titer” value in experiment [3] (setting [9]) came out at 7.0 ± 0.3 Log10 CCID50/g; in experiment [4] (setting [10]), 7.9 ± 0.2 Log10 CCID50/g; in experiment [5] (10 mg/kg twice a day), 5.22 ± 0.38 Log10 CCID50/g. Further, the “Mean Lung Parameters (Day 6): Weight” value in experiment [3] (setting [9]) is given as 218 ± 24 mg; in experiment [4] (setting [10]), 178 ± 28 mg. Further, the “Mean Lung Parameters (Day 6): Score” value is on record as 1.7 ± 1.1 in experiment [3] (10 mg/kg twice a day, prophylaxis, lung hemorrhage score 0-4) and 1.0 ± 0.0^e in experiment [4] (Oseltamivir 10 mg/kg BID prophylaxis, hemorrhage score 0-4). For the same molecule, in the experiment on influenza A (Study 1, 10 mg/kg BID from 24 h post infection for 5 days), the “Lung Viral Titer” value was 6.05 Log10 TCID50. In the experiment with influenza A (Study 1, 10 mg/kg BID from 24 h post infection), the “Log10 Reduction vs. Vehicle” value is recorded as −0.15 Log10. Further, the survival entry with influenza A virus (mouse influenza A model, oseltamivir 10 mg/kg BID, same experiment) is on record as “All of the oseltamivir-administered mice survived”; in the experiment with influenza A virus (mouse, in vivo), “All of the oseltamivir-administered mice survived”. Besides, the “protection with delayed dosing” value in the experiment with influenza A virus (mouse, in vivo) was “only provided complete protection when dosing was initiated 24 h or less”. Moreover, the “Percent Survival” value stood at 100% in the experiment with influenza A virus (mouse, in vivo, 10 mg/kg); 100% with influenza A virus (setting [12]); 80% in the experiment with influenza A virus (setting [13]); 0% in the experiment with influenza A virus (setting [14]). Also, the “Percent Body Weight Loss on Study Day 8” value was −28.9% in the experiment on influenza A virus (setting [12]); −31.1% with influenza A virus (setting [13]); −31.3% in the experiment on influenza A virus (setting [14]); −19.1% in the experiment with influenza A virus (treatment start −2 h, 10 mg/kg BID). In addition, the “protection from death, BW loss, lung function” value in experiment [6] (Oseltamivir 10 mg/kg alone, +48 hours post influenza A infection) is “did not protect from death”; in experiment [7] (Oseltamivir 10 mg/kg alone, 2 hours prior to influenza B infection) it was “complete protection from death”. In addition, in experiment [6] (setting [15]), the “Penh (Day 3)” value is 2.36. For the same molecule, the “Survival (21 days)” value in experiment [6] (setting [15]) came out at 0%; in experiment [7] (setting [16]), 100%. In addition, the “Weight Loss (Day 8)” value worked out at 32.0% in experiment [6] (setting [15]) and 12.8% in [7] (setting [16]). Besides, the “Penh (Day 6/7)” value in [7] (setting [16]) turned out to be 1.08. Besides, the “C.I. (combination index)” value in the experiment with A/Puerto Rico/8/34 [2] came out at 0.58.
